Values of other authors as cited in patent US20080095865A1, “COMPOSITION AND METHOD FOR INCREASING LEAN MUSCLE MASS, DECREASING MUSCLE LOSS, INCREASING MUSCLE STRENGTH AND IMPROVING ATHLETIC PERFORMANCE” (APLODAN FORMULATIONS LTD., priority 2004, published 2008).

Columns and labels:
[1] = as a supplement
[2] = patients with inadequate coronary blood flow
[3] = unaffected in placebo group
[4] = elderly subjects, compared to controls
[5] = supplemented rats
[6] = hamster, in vivo

SMILES | tolerance and side effects [1] | cardiac parameters [2] | hand-grip strength [3] | muscular performance [4] | increase of metabolic clearance rate of glucose (diabetics) [%] | body's utilization of blood sugar (type II diabetics) | age-related changes in mitochondrial function, accumulated oxidative damage and metabolic rate [5] | high-density lipoproteins [6]
CN(CCOP(=O)(O)O)C(=N)N [Creatinol O-Phosphate] | well tolerated and without side effects | successfully used to improve cardiac parameters | improved | improved muscular performance as compared to controls |  |  |  | 
O=C(O)CCCC[C@@H]1CCSS1 (stereo in doubt) [Alpha Lipoic Acid, 1,2-dithiolane-3-pentanoic acid] |  |  |  |  | 50 | significantly increase | improved | beneficial increase in high-density lipoproteins
